In patent publication EP4324461A1, “(E)-N-CINAMOYLAMINOALKANOLES WITH MELANOGENESIS INHIBITORY ACTIVITY” (UNIWERSYTET JAGIELLONSKI, priority 2022, dated 2024):
pIC50: −log10 of the molar value. Where two headings read alike, the source gives them in different places.

Key:
S. typhimurium TA98 = assay: Ames microplate test, TA98; type: cell-based, Salmonella typhimurium;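 further: reference level is the mean solvent-control yellow wells plus SD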
Description: Bacteria were grown overnight in growth medium.
Table 9. Ames microplate test results.

tyrosinase from mushroom = assay: Inhibition of commercial mushroom tyrosinase (L-DOPA or L-tyrosine substrate); type: biochemical
Outline: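 Tyrosinase (1U/well or 3U/well) in 50 mM phosphate buffer pH 6.8 with compound at final 500, 250 or 125 µM; L-DOPA (diphenolase) or L-tyrosine (monophenolase) added in separate runs. Absorbance at 475 nm after 25 min; % inhibition versus DMSO control.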

[1] = system: B16-F10 murine melanoma cell line; assay: Cytotoxicity in B16-F10 cells (MTT); type: cell-based; settings: 48 h
Outline: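 Cells in F10-Ham with 1% FBS exposed to various compound concentrations for 48 h after 24 h pre-culture. MTT read-out: formazan dissolved in DMSO, absorbance at 570 nm. Viability expressed as percent of DMSO control (AT/AC×100).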

[2] = Lipophilicity coefficient RM0 by reversed phase thin layer chromatography; type: physicochemical; settings: RP-18 TLC, methanol / 100 mM phosphate buffer pH = 7.4
Outline: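 Reversed-phase TLC on RP-18 F254 silica, with methanol/100 mM phosphate buffer pH 7.4 mobile phases of 95–65% (v/v) methanol, at room temperature, in duplicate. Spots were visualized under UV at 254 nm. RM = log(1/Rf − 1) was plotted linearly against methanol content to derive RM0.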

[3] = L-tyrosine, read-out: Tyrosinase inhibition with L-tyrosine, IC50
[4] = L-DOPA, read-out: Tyrosinase inhibition with L-DOPA, IC50

Structure (SMILES): O=C(/C=C/c1ccccc1)NCCCCCCO [H-425/21, (E)-N-(6-hydroxyhexyl)cinnamic acid amide]
- Increase in the number of yellow wells compared to the reference level (S. typhimurium TA98; 0.5 mM, +S9): 0.42
- Increase in the number of yellow wells compared to the reference level (S. typhimurium TA98; 0.5 mM, without S9): 0.27
- Increase in the number of yellow wells compared to the reference level (S. typhimurium TA98; 1.0 mM, +S9): 0.42
- Increase in the number of yellow wells compared to the reference level (S. typhimurium TA98; 1.0 mM, without S9): 0.54
- Increase in the number of yellow wells compared to the reference level (S. typhimurium TA98; 2.0 mM, +S9): 0.63
- Increase in the number of yellow wells compared to the reference level (S. typhimurium TA98; 2.0 mM, without S9): 0.80
- Tyrosinase inhibition with L-DOPA [%] (tyrosinase from mushroom; L-DOPA): 34.63±2.46% (500 µM)
- Tyrosinase inhibition with L-tyrosine [%] (tyrosinase from mushroom; L-tyrosine): 44.61±5.99% (500 µM)
- pIC50 (tyrosinase from mushroom; [3]): 3.12
- Cytotoxicity study in B16F10 cells % viability ([1]; 150 µM): 109.2%
- Cytotoxicity study in B16F10 cells % viability ([1]; 200 µM): 98.4%
- Cytotoxicity study in B16F10 cells % viability ([1]; 250 µM): 86.9%
- RM0 [2]: 2.40

Structure (SMILES): O=C(/C=C/c1ccc(Cl)cc1)NCCCCCO [Compound A-111, (2E)-3-(4-chlorophenyl)-N-(5-hydroxypentyl)prop-2-enamide]
- Increase in the number of yellow wells compared to the reference level (S. typhimurium TA98; 0.5 mM, +S9): 1.50
- Increase in the number of yellow wells compared to the reference level (S. typhimurium TA98; 0.5 mM, without S9): 0.7
- Increase in the number of yellow wells compared to the reference level (S. typhimurium TA98; 1.0 mM, +S9): 0.83
- Increase in the number of yellow wells compared to the reference level (S. typhimurium TA98; 1.0 mM, without S9): 0.44
- Increase in the number of yellow wells compared to the reference level (S. typhimurium TA98; 2.0 mM, +S9): 1.50
- Increase in the number of yellow wells compared to the reference level (S. typhimurium TA98; 2.0 mM, without S9): 1.00
- Tyrosinase inhibition with L-DOPA [%] (tyrosinase from mushroom; L-DOPA, 250 µM): 59.94±1.56% (250 µM)
- pIC50 (tyrosinase from mushroom; [4]): 3.83
- Tyrosinase inhibition with L-tyrosine [%] (tyrosinase from mushroom; L-tyrosine): 88.98±0.98% (500 µM)
- pIC50 (tyrosinase from mushroom; [3]): 4.43
- Cytotoxicity study in B16F10 cells % viability ([1]; 150 µM): 88.2%
- Cytotoxicity study in B16F10 cells % viability ([1]; 200 µM): 95.6%
- Cytotoxicity study in B16F10 cells % viability ([1]; 250 µM): 89.7%
- RM0 [2]: 2.79

Structure (SMILES): O=C(/C=C/c1ccc(Cl)cc1)NCCCO [H-330/21, (2E)-3-(4-chlorophenyl)-N-(3-hydroxypropyl)prop-2-enamide]
- Tyrosinase inhibition with L-DOPA [%] (tyrosinase from mushroom; L-DOPA): 55.32±1.39% (500 µM)
- pIC50 (tyrosinase from mushroom; [4]): 3.58
- Tyrosinase inhibition with L-tyrosine [%] (tyrosinase from mushroom; L-tyrosine): 82.49±0.65% (500 µM)
- pIC50 (tyrosinase from mushroom; [3]): 3.97
- Cytotoxicity study in B16F10 cells % viability ([1]; 150 µM): 78.6%
- Cytotoxicity study in B16F10 cells % viability ([1]; 200 µM): 82.9%
- Cytotoxicity study in B16F10 cells % viability ([1]; 250 µM): 83.9%
- RM0 [2]: 1.94

Structure (SMILES): O=C(/C=C/c1ccccc1)NCCCCCO [Compound A-133, (2E)-N-(5-hydroxypentyl)-3-phenylprop-2-enamide]
- Increase in the number of yellow wells compared to the reference level (S. typhimurium TA98; 0.5 mM, +S9): 0.50
- Increase in the number of yellow wells compared to the reference level (S. typhimurium TA98; 0.5 mM, without S9): 0.44
- Increase in the number of yellow wells compared to the reference level (S. typhimurium TA98; 1.0 mM, +S9): 0.67
- Increase in the number of yellow wells compared to the reference level (S. typhimurium TA98; 1.0 mM, without S9): 0.33
- Increase in the number of yellow wells compared to the reference level (S. typhimurium TA98; 2.0 mM, +S9): 1.00
- Increase in the number of yellow wells compared to the reference level (S. typhimurium TA98; 2.0 mM, without S9): 0.67
- Tyrosinase inhibition with L-DOPA [%] (tyrosinase from mushroom; L-DOPA): 47.96±1.83% (500 µM)
- pIC50 (tyrosinase from mushroom; [4]): 3.28
- Tyrosinase inhibition with L-tyrosine [%] (tyrosinase from mushroom; L-tyrosine): 58.56±4.58% (500 µM)
- pIC50 (tyrosinase from mushroom; [3]): 3.35
- Cytotoxicity study in B16F10 cells % viability ([1]; 150 µM): 101.7%
- Cytotoxicity study in B16F10 cells % viability ([1]; 200 µM): 94.9%
- Cytotoxicity study in B16F10 cells % viability ([1]; 250 µM): 95.6%
- RM0 [2]: 2.15

Structure (SMILES): Cc1ccc(/C=C/C(=O)NCCCCCO)cc1 [H-415/21, (2E)-N-(5-hydroxypentyl)-3-(4-methylphenyl)prop-2-enamide]
- Increase in the number of yellow wells compared to the reference level (S. typhimurium TA98; 0.5 mM, without S9): 0.47
- Increase in the number of yellow wells compared to the reference level (S. typhimurium TA98; 1.0 mM, without S9): 0.24
- Increase in the number of yellow wells compared to the reference level (S. typhimurium TA98; 2.0 mM, without S9): 0.35
- Tyrosinase inhibition with L-DOPA [%] (tyrosinase from mushroom; L-DOPA): 30.43±0.88% (500 µM)
- Tyrosinase inhibition with L-tyrosine [%] (tyrosinase from mushroom; L-tyrosine): 25.04±5.67% (500 µM)
- Cytotoxicity study in B16F10 cells % viability ([1]; 150 µM): 85.2%
- Cytotoxicity study in B16F10 cells % viability ([1]; 200 µM): 90.3%
- Cytotoxicity study in B16F10 cells % viability ([1]; 250 µM): 75.7%
- RM0 [2]: 2.49

Structure (SMILES): O=C(/C=C/c1ccc(Cl)cc1)NCCO [H-427/21, (2E)-3-(4-chlorophenyl)-N-(2-hydroxyethyl)prop-2-enamide]
- Tyrosinase inhibition with L-DOPA [%] (tyrosinase from mushroom; L-DOPA): 55.77±0.77% (500 µM)
- pIC50 (tyrosinase from mushroom; [4]): 3.56
- Tyrosinase inhibition with L-tyrosine [%] (tyrosinase from mushroom; L-tyrosine): 67.45±2.66% (500 µM)
- pIC50 (tyrosinase from mushroom; [3]): 3.71
- Cytotoxicity study in B16F10 cells % viability ([1]; 150 µM): 73.7%
- Cytotoxicity study in B16F10 cells % viability ([1]; 200 µM): 80.2%
- Cytotoxicity study in B16F10 cells % viability ([1]; 250 µM): 77.8%
- RM0 [2]: 1.93
